Measurements published in ChEMBL document CHEMBL1201862, “PubChem BioAssay data set” (2004).
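Results reflect a 48-hour exposure of cells in 96-well plates to compound at five concentrations. Abbreviation: GI50, concentration required for 50% inhibition of growth.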 Active and inactive are the calls of the source. Cut-off read from the data, not from the text of the source: active = GI50 up to about 1.1 µM and inactive = higher.

Assays:
Experiment in all cases: NCI tumour cell line growth inhibition, 48 h
[1] = system: CCRF-CEM
[2] = system: PC-3
[3] = system: UACC-62
[4] = system: T47D
[5] = system: HOP-62
[6] = system: BT-549
[7] = system: K562
[8] = system: RPMI-8226
[9] = system: Hs-578T
[10] = system: SN12C
[11] = system: SK-OV-3
[12] = system: HCC 2998
[13] = system: UO-31
[14] = system: MDA-MB-231
[15] = system: LOX IMVI
[16] = system: NCI-H23
[17] = system: NCI-H226
[18] = system: SNB-75
[19] = system: RXF 393
[20] = system: NCI-H460

| Compound | GI50 [1] | GI50 [2] | GI50 [3] | GI50 [4] | GI50 [5] | GI50 [6] | GI50 [7] | GI50 [8] | GI50 [9] | GI50 [10] | GI50 [11] | GI50 [12] | GI50 [13] | GI50 [14] | GI50 [15] | GI50 [16] | GI50 [17] | GI50 [18] | GI50 [19] | GI50 [20] |
| --- | --- | --- | --- | --- | --- | --- | --- | --- | --- | --- | --- | --- | --- | --- | --- | --- | --- | --- | --- | --- |
| Cc1ccc(/C=N/Nc2cnccn2)s1 | > 100 µM (inactive) | > 100 µM (inactive) | > 100 µM (inactive) | > 100 µM (inactive) | > 100 µM (inactive) | > 100 µM (inactive) | 65.2 µM (inactive) | > 100 µM (inactive) | > 100 µM (inactive) | 42.6 µM (inactive) | > 100 µM (inactive) | > 100 µM (inactive) | > 100 µM (inactive) | 96.2 µM (inactive) | > 100 µM (inactive) | > 100 µM (inactive) | 38.7 µM (inactive) | > 100 µM (inactive) | > 100 µM (inactive) |  |
| O=C(O)CCSc1ncnc2[nH]cnc12 | > 100 µM (inactive) | > 100 µM (inactive) | > 100 µM (inactive) | > 100 µM (inactive) | > 100 µM (inactive) | > 100 µM (inactive) | > 100 µM (inactive) | > 100 µM (inactive) | > 100 µM (inactive) | > 100 µM (inactive) | > 100 µM (inactive) | > 100 µM (inactive) | > 100 µM (inactive) | > 100 µM (inactive) | > 100 µM (inactive) | > 100 µM (inactive) | 64.7 µM (inactive) |  | > 100 µM (inactive) | > 100 µM (inactive) |
| Clc1nc2n(c1/C=C/c1cccs1)CCS2 | 10.9 µM (inactive) | 40.8 µM (inactive) | 37.3 µM (inactive) | 17 µM (inactive) | 53.7 µM (inactive) | 26.6 µM (inactive) | 47.2 µM (inactive) | 15.7 µM (inactive) | 30.1 µM (inactive) | 31.4 µM (inactive) | 30.7 µM (inactive) | 35.5 µM (inactive) | 31 µM (inactive) | 6.41 µM (inactive) |  | 29 µM (inactive) | 31.6 µM (inactive) | 55 µM (inactive) | 40.8 µM (inactive) |  |
| COc1cc(C2S/C(=C/c3ccccc3)C(=O)N2c2ccccn2)cc(OC)c1OC (stereo unspecified) | 3.57 µM (inactive) | 22.4 µM (inactive) | 14.7 µM (inactive) | 7.35 µM (inactive) | 18.6 µM (inactive) | 13.9 µM (inactive) | 11.9 µM (inactive) | 7.53 µM (inactive) | 20.2 µM (inactive) | 15.3 µM (inactive) | 28.2 µM (inactive) | 15.7 µM (inactive) | 13.5 µM (inactive) | 24.8 µM (inactive) | 9.59 µM (inactive) | 13.7 µM (inactive) | 45.9 µM (inactive) | 6.87 µM (inactive) | 10 µM (inactive) |  |
| COc1cc2ccc1OCc1cccc(n1)COc1ccc(cc1OC)/C=N\CCNCCNCC/N=C\2 | > 100 µM (inactive) | > 100 µM (inactive) | > 100 µM (inactive) | > 100 µM (inactive) | > 100 µM (inactive) | > 100 µM (inactive) | > 100 µM (inactive) |  | > 100 µM (inactive) | > 100 µM (inactive) | > 100 µM (inactive) | > 100 µM (inactive) | > 100 µM (inactive) | > 100 µM (inactive) | > 100 µM (inactive) | > 100 µM (inactive) | > 100 µM (inactive) | > 100 µM (inactive) | > 100 µM (inactive) | > 100 µM (inactive) |
| COc1ccc(N2C(=O)CC(Cl)C2=O)cc1 (stereo unspecified) |  | 52.2 µM (inactive) | 20.2 µM (inactive) | 18.9 µM (inactive) | > 100 µM (inactive) | > 100 µM (inactive) | 6.05 µM (inactive) | 13.5 µM (inactive) | > 100 µM (inactive) | 17.5 µM (inactive) | > 100 µM (inactive) | 20.4 µM (inactive) | 18.7 µM (inactive) | 17.4 µM (inactive) | 23.3 µM (inactive) | 23.3 µM (inactive) | 20.5 µM (inactive) | > 100 µM (inactive) | 20 µM (inactive) | > 100 µM (inactive) |
| CCC(C#N)N(Cc1cccc(CN(C(C)=O)C(C#N)CC)c1)C(C)=O (stereo unspecified) | > 100 µM (inactive) | > 100 µM (inactive) | > 100 µM (inactive) | 7.24 µM (inactive) | > 100 µM (inactive) | > 100 µM (inactive) | > 100 µM (inactive) | > 100 µM (inactive) | > 100 µM (inactive) | > 100 µM (inactive) | > 100 µM (inactive) | 97.1 µM (inactive) | > 100 µM (inactive) | 46.6 µM (inactive) | > 100 µM (inactive) | > 100 µM (inactive) | 44.5 µM (inactive) | 12 µM (inactive) | > 100 µM (inactive) |  |
| C/C(=N\Nc1nc2ccccc2s1)c1cccc[n+]1[O-] | 25.2 µM (inactive) | 33 µM (inactive) | 50.1 µM (inactive) | 30.8 µM (inactive) | 48.3 µM (inactive) | > 100 µM (inactive) | 31.4 µM (inactive) | 41.1 µM (inactive) | > 100 µM (inactive) | 48.9 µM (inactive) | 37.4 µM (inactive) | 0.0252 µM (active) | 20 µM (inactive) | 49.9 µM (inactive) | 48.6 µM (inactive) | 47.3 µM (inactive) | 55.2 µM (inactive) |  | 66.2 µM (inactive) | 46.2 µM (inactive) |
